Tests used:
[1] = Ketogenic activity after oral administration: plasma β-hydroxybutyrate in rats (Ranbut assay); conditions: 300 mg/kg po; for maximum increase of plasma concentration of β-hydroxybutyrate: male Sprague-Dawley rats, versus baseline (T=0)
Experimental: Male Sprague-Dawley rats (weight range 200-250 g; Clarles River, Margate, Kent) were used. The rats were group-housed in polypropylene cages at a temperature of 21±4° C., 55±20% humidity on a standard 12 hour light/dark cycle (lights on at 6.00 am). […] Animals were acclimatized to these conditions for at least one week before experimentation.
The sodium salt of D-β-hydroxybutyrate monomer (KTX 0101) was used as a comparator for assessing the bioavailability of the oligomeric compounds described here. […] Control animals received the appropriate vehicle (deionized water at 1 ml/kg) via the same route.
In Protocol A, blood (approx […]) was collected by cardiac puncture at 15, 30 and 60 minutes after dosing. In Protocol B, blood (approx 5 ml) was collected by cardiac puncture at 30, 120 and 240 minutes after dosing. In Protocol E, blood (approx 5 ml) was collected by cardiac puncture at 120 and 240 minutes after dosing. Animals were killed by CO2 asphyxiation and blood collected by cardiac puncture. Blood was placed into EDTA-coated plasma collection tubes (Sarstedt 5 ml K2E tubes) and kept on ice prior to centrifugation. Tubes were centrifuged in an Eppendorf 570R centrifuge at 4° C. for 5 minutes at 2500 rpm (1000 g). Plasma samples were initially frozen on dry ice and transferred to a −75° C. freezer until required for analysis.
Commercial clinical assay kits (Ranbut) for the determination of D-β-hydroxybutyrate were obtained from Randox Laboratories (Antrim, UK). The kit quantified NADH via the activity of β-hydroxybutyrate dehydrogenase measured as an increase in OD340 nm. An alkaline pH is necessary to drive the reaction equilibrium towards the production of NADH and acetoacetate.
This spectrophotometric assay was modified for application to a 96-well microplate format. The reaction rate was then determined from the increase in OD340 nm over a 1 minute time-course, after allowing a necessary period for the reaction rate to settle.

[2] = Ketogenic activity after intravenous injection: plasma β-hydroxybutyrate in rats (Ranbut assay); type: in vivo, rat; conditions: 300 mg/kg iv; for plasma concentration of β-hydroxybutyrate (increase to): 15 min after injection
Experimental: Male Sprague-Dawley rats (weight range 200-250 g) were obtained from Charles River, Margate, Kent.
The compounds were infused via the tail vein at 300 mg/kg (1 ml/kg) over a period of 1 to 2 min.
Animals were killed 15 min later by CO2 asphyxiation and blood was collected by cardiac puncture.

[3] = Dissolution in deionized water / water solubility; type: physicochemical; conditions: dissolved at 300 mg/ml in deionized water (KTX 0202: 300 mg/kg [sic])

Compound | maximum increase of plasma concentration of β-hydroxybutyrate [1] | magnitude of increase in plasma β-hydroxybutyrate compared with KTX 0101 ([1]; rats) | plasma concentration of β-hydroxybutyrate (increase to) [2] | time at which plasma β-hydroxybutyrate was still significantly elevated ([1]; rats) | time at which the maximum increase of plasma β-hydroxybutyrate was observed ([1]; rats) | time by which plasma β-hydroxybutyrate returned to control values ([1]; rats) | time until which plasma β-hydroxybutyrate plateaued at the maximum level ([1]; rats) | appearance of the solution [3] | pH of the solution [3] | bioavailability by the intravenous route [2] | increase of plasma β-hydroxybutyrate at 15 min, more than KTX 0101 ([2]; 15 min) | biological half-life relative to KTX 0101 ([1]; rats) | oral bioavailability ([1]; rats)
1-3 butandiol, di-(tri(R)-3-hydroxybutyrate)ester [KTX 0203] | 0.4 mM | at least as great as those produced by KTX 0101 | – | – | – | – | – | – | – | – | – | – | –
C[C@@H]1CC(=O)O[C@H](C)CC(=O)O[C@H](C)CC(=O)O1 [(R)-3-β-hydroxybutyrate triolide, reference compound] | 0.5 mM | at least as great as that evoked by oral administration of the equivalent dose of KTX 0101 | – | – | – | – | – | – | – | – | – | – | –
C[C@@H](O)CC(=O)[O-].[Na+] [KTX 0101, sodium D-β-hydroxybutyrate, reference compound] | 0.4 mM | – | 1.0 mM | 1 h | 15 min | ≤ 2 h | 30 min | clear solution | 7.0 | – | – | – | –
CC(O)CCOC(=O)C[C@@H](C)OC(=O)C[C@@H](C)OC(=O)C[C@@H](C)O (stereo partly drawn) [KTX 0202, 1-(tri(R)-3-hydroxybutyryl-butane-1,3-diol) ester] | 0.4 mM | at least as great as those produced by KTX 0101 | 1.7 mM | 2 h | 30 min | ≤ 4 h | – | slightly opaque solution | 6.0 | bioavailable when injected via the intravenous route | 60% | improved biological half-life relative to KTX 0101 | orally bioavailable
